System: mouse derived immortalized melanocyte cells (M3)
Assay: Suppression of melanogenesis in vitro (melanin extracted, optical density at 405 nm; visual count of melanized cells)
Type: cell-based
Settings: Treatment Dose 0.100%; M3 melanocytes, treated days 1, 3, 5; melanin extracted day 6, OD 405 nm

O=C1O[C@H]([C@@H](O)CO)C(O)=C1O [Ascorbic Acid]
% Control Melanin: 51%
